Laboratory results taken from the supplement of paper PMC10307832.

Columns and labels:
Experiment in all cases: relative viability (nuclei count vs DMSO), 5 days (fraction); higher = more cells survive
[1] = compound: CCC1=CN=CN=C1N2CCN(CC2)CC3=NC4=C(N3)C=C(C=C4)C(F)(F)F + COc1cc2c(Oc3ccc(NC(=O)C4(C(=O)Nc5ccc(F)cc5)CC4)cc3F)ccnc2cc1OCCCN1CCOCC1 [Foretinib] (partner 0.25 µM)
Method in brief: (§1)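 One day after seeding in 1536-well plates, lung cancer cell lines were dosed by pin tool. Dosing was either single-drug or a fixed anchor-drug dose plus five library-drug doses (not always all listed) in √10 steps. After 5 days, nuclei were stained in one fix-and-stain step and counted on 4× images, and relative viability is the nuclei count of treated wells over that of vehicle wells, given as the median of duplicate plates.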

[2] = compound: CCn1c(-c2nonc2N)nc2cnc(Oc3cccc(NC(=O)c4ccc(OCCN5CCOCC5)cc4)c3)cc21 + COc1cc2c(Oc3ccc(NC(=O)C4(C(=O)Nc5ccc(F)cc5)CC4)cc3F)ccnc2cc1OCCCN1CCOCC1 [Foretinib] (partner 0.25 µM)
Method in brief: as §1

Mirin + AZD7762 = compound: N=C1NC(=O)/C(=C/c2ccc(O)cc2)S1 [Mirin] + NC(=O)Nc1cc(-c2cccc(F)c2)sc1C(=O)N[C@H]1CCCNC1 [AZD7762] (partner 0.2 µM)
Method in brief: as §1

[3] = compound: CCn1c(-c2nonc2N)nc2cnc(Oc3cccc(NC(=O)c4ccc(OCCN5CCOCC5)cc4)c3)cc21 + CCNC(=O)c1noc(-c2cc(C(C)C)c(O)cc2O)c1-c1ccc(CN2CCOCC2)cc1 [Luminespib] (partner 0.01 µM)
Method in brief: as §1

| Cell Line | relative viability ([1]; first compound 0.04 µM) | relative viability ([1]; first compound 0.1265 µM) | relative viability ([1]; first compound 0.4 µM) | relative viability ([1]; first compound 1.265 µM) | relative viability ([1]; first compound 4 µM) | relative viability ([2]; first compound 0.04 µM) | relative viability ([2]; first compound 0.1265 µM) | relative viability ([2]; first compound 0.4 µM) | relative viability ([2]; first compound 1.265 µM) | relative viability ([2]; first compound 4 µM) | relative viability (Mirin + AZD7762; first compound 0.25 µM) | relative viability (Mirin + AZD7762; first compound 0.7906 µM) | relative viability (Mirin + AZD7762; first compound 2.5 µM) | relative viability (Mirin + AZD7762; first compound 7.906 µM) | relative viability (Mirin + AZD7762; first compound 25 µM) | relative viability ([3]; first compound 0.04 µM) | relative viability ([3]; first compound 0.1265 µM) | relative viability ([3]; first compound 0.4 µM) | relative viability ([3]; first compound 1.265 µM) | relative viability ([3]; first compound 4 µM) |
| --- | --- | --- | --- | --- | --- | --- | --- | --- | --- | --- | --- | --- | --- | --- | --- | --- | --- | --- | --- | --- |
| NCI-H322M | 1.08 | 0.907 | 0.939 | 0.953 | 0.925 | 1.51 | 1.24 | 1.22 | 0.71 | 0.8 | 0.508 | 0.653 | 0.51 | 0.551 | 0.57 | 1.25 | 1.16 | 0.931 | 0.434 | 0.587 |
| NCI-H2405 | 1.06 | 1.02 | 1.06 |  | 1.12 | 1.23 | 0.999 | 0.485 | 0.342 | 0.384 | 0.747 |  | 0.798 | 0.734 | 0.599 | 0.735 | 0.49 | 0.219 | 0.217 | 0.214 |
| HCC-44 |  |  |  |  |  |  |  |  |  |  | 1.05 | 1.22 | 1.04 | 1.03 | 1.11 | 0.772 | 0.974 | 0.478 | 0.17 | 0.126 |
| HCC-78 | 0.585 | 0.631 | 0.491 | 0.51 | 0.539 | 0.596 | 0.584 |  | 0.64 | 0.713 | 0.583 | 0.863 | 0.671 | 0.658 | 0.68 |  |  |  |  |  |
| COR-L23 | 0.925 | 0.861 | 0.986 | 0.918 | 0.897 | 0.91 | 0.778 | 0.569 | 0.182 | 0.176 |  |  |  |  |  | 0.62 | 0.463 | 0.447 | 0.15 | 0.106 |
| NCI-H1993 | 0.844 | 0.73 | 0.668 | 0.682 | 0.668 | 0.84 | 0.765 | 0.659 | 0.795 | 0.723 | 0.897 | 0.628 | 0.679 | 0.808 | 0.971 | 0.891 | 0.768 | 1.02 | 0.692 | 0.664 |
| NCI-H3122 | 0.924 | 0.968 | 0.94 | 0.978 | 0.977 | 1.06 | 0.969 | 0.935 | 0.972 | 0.832 | 1.01 | 0.954 | 0.927 | 1.07 | 1.1 | 0.0608 | 0.0978 | 0.0882 | 0.0945 | 0.0955 |
| NCI-H2228 | 1.09 | 0.848 | 0.647 | 0.746 | 0.801 | 1.28 | 0.946 | 1.03 | 0.744 | 0.731 |  |  |  |  |  | 0.118 | 0.109 | 0.133 | 0.162 | 0.124 |
| NCI-H1944 | 1.1 | 0.844 | 0.809 | 0.648 | 0.694 | 0.772 | 0.869 | 0.978 | 0.861 | 0.658 | 0.555 | 0.569 | 0.537 | 0.381 | 0.381 | 0.575 | 0.728 | 0.765 | 0.675 | 0.56 |
| SK-LU-1 | 0.876 | 0.785 | 0.76 | 0.813 | 0.77 | 0.837 | 0.621 | 0.587 | 0.333 | 0.318 |  |  |  |  |  | 0.231 | 0.155 | 0.189 | 0.159 | 0.172 |
| NCI-H2023 | 0.698 | 0.911 | 0.849 | 0.628 | 0.895 | 0.897 | 0.988 | 1.03 | 0.71 | 0.451 |  |  |  |  |  | 0.794 | 0.72 | 0.67 | 0.381 | 0.332 |
| NCI-H1792 |  |  |  |  |  |  |  |  |  |  | 0.729 | 0.803 | 0.826 | 0.636 | 0.77 | 0.477 | 0.21 | 0.47 | 0.299 | 0.308 |
| NCI-H1563 | 0.961 | 1.01 | 0.938 | 0.844 | 0.917 | 0.792 | 0.786 | 0.769 | 0.85 | 0.666 |  |  |  |  |  | 1.23 | 0.514 | 0.482 | 0.466 | 0.48 |
| NCI-H520 | 0.795 | 0.626 | 0.777 | 0.588 | 0.798 | 0.962 | 0.994 | 0.755 | 0.603 | 0.429 |  |  |  |  |  | 0.232 | 0.215 | 0.217 | 0.197 | 0.183 |
| HCC-366 | 0.856 | 1.01 | 0.915 | 0.877 | 0.851 | 0.946 | 1 | 0.907 | 0.937 | 0.968 | 0.313 | 0.541 | 0.28 | 0.262 | 0.364 |  |  |  |  |  |
| NCI-H522 |  |  |  |  |  |  |  |  |  |  | 0.813 | 0.805 | 0.83 | 0.861 | 0.595 | 1.04 | 1.27 | 0.853 | 0.797 | 0.767 |
| NCI-H661 | 0.973 | 1.03 | 1.04 | 0.943 | 0.834 | 0.966 | 0.846 | 0.925 | 0.801 | 0.522 |  |  |  |  |  | 0.995 | 0.934 | 0.936 | 0.739 | 0.642 |
| SK-MES-1 | 0.917 | 0.925 | 0.909 | 0.829 | 0.882 | 1.03 | 0.645 | 0.502 | 0.674 | 0.638 |  |  |  |  |  | 0.728 | 0.681 | 0.525 | 0.485 | 0.37 |
| EBC-1 | 0.107 | 0.0909 | 0.0948 | 0.0919 | 0.112 | 0.0933 | 0.0951 | 0.0949 | 0.0808 | 0.0597 |  |  |  |  |  |  |  |  |  |  |
| NCI-H1650 | 1.26 | 0.893 | 0.931 |  | 0.808 | 1.19 | 1.32 | 1.49 | 1.23 | 0.969 |  |  |  |  |  | 0.248 | 0.198 | 0.196 | 0.191 | 0.183 |
| IA-LM | 1.11 | 0.943 | 1.02 | 1.1 | 1.22 | 1.65 | 1.39 | 1.13 | 1.06 | 0.898 |  |  |  |  |  |  |  |  |  |  |
| NCI-H1703 | 0.344 | 0.366 | 0.369 | 0.381 | 0.372 | 0.312 | 0.326 | 0.332 | 0.337 | 0.264 | 0.115 | 0.148 | 0.146 |  | 0.117 |  |  |  |  |  |
